Measurements reported in patent US8389552B2, “(S)-6-(2-(4-(cyclobutylsulfonyl)-1H-imidazol-1-yl)-3-cyclopentylpropanamido)nicotinic acid useful as a glucokinase activator” (Pfizer Inc., priority 2009, dated 2013).

Target: T1, Full-length glucokinase (beta cell isoform) (Homo sapiens, UniProt P35557)
T1 construct: Full-length glucokinase (beta cell isoform) was His-tagged at N-terminus; His tag (N); made in house; host or cells: E. coli BL21(DE3), pBCGK vector
T1 sequence (P35557 1-465): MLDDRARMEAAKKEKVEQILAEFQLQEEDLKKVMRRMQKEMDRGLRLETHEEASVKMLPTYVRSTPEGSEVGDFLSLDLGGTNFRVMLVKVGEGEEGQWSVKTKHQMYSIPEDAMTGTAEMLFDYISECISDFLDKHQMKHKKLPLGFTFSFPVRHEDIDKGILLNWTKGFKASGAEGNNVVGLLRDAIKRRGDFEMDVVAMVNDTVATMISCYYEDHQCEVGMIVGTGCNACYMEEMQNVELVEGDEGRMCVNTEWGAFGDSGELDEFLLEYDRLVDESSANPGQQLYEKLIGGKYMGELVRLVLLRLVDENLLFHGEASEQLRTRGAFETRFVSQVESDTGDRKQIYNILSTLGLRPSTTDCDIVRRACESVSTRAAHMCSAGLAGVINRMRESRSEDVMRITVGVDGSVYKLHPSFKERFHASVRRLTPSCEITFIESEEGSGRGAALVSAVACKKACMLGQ
Experiment: Glucokinase activation assay (PK/LDH-coupled, NADH depletion at 340 nm)
Format: biochemical
Conditions: 5 mM glucose, single value or range where N>1; for EC50: 2.5 mM ATP, pH 7.1, room temperature, read-out: EC50; for Emax: % max activation = (Va/Vo−1)×100 from fit, pH 7.1, read-out: Maximum Activation (%)
Description: Full-length glucokinase (beta cell isoform) was His-tagged at N-terminus and purified by a Ni column followed by size exclusion chromatography. A 320 mL column was packed in house using Superdex75 (Amersham Pharmacia, Carlsbad, Calif.) preparation grade resin. Glucose was obtained from Calbiochem (San Diego, Calif.) and other reagents were purchased from Sigma-Aldrich (St. Louis, Mo.).
All assays were performed in a Corning 384-well plate using Spectramax PLUS spectrophotometer (Molecular Devices, Sunnyvale, Calif.) at room temperature. The final assay volume was 40 ∥L. The buffer conditions used in this assay were as follows: 50 mM HEPES, 5 mM glucose, 2.5 mM ATP, 3.5 mM MgCl2, 0.7 mM NADH, 2 mM dithiothreitol, 1 unit/mL pyruvate kinase/lactate dehydrogenase (PK/LDH), 0.2 mM phosphoenolpyruvate, and 25 mM KCl. The buffer pH was 7.1. The test compound in dimethylsulfoxide solution was added to the buffer and mixed by a plate shaker for 7.5 minutes. The final concentration of dimethylsulfoxide introduced into the assay was 0.25%.
Glucokinase was added to the buffer mixture to initiate the reaction in the presence and absence of compound. The reaction was monitored by absorbance at 340 nm due to the depletion of NADH. The initial reaction velocity was measured by the slope of a linear time course of 0-300 seconds. The percentage of maximum activation was calculated by the following equation: % Maximum Activation=(Va/Vo−1)×100; wherein each of Va and Vo is defined as the initial reaction velocity in the presence and absence of the tested compound, respectively.
The glucokinase activities were measured as a function of compound concentrations.

EC50 [µM] | Emax [%] | Compound
0.2 to 0.3 | 120 to 138 | O=C(O)c1ccc(NC(=O)[C@H](CC2CCCCC2)n2cnc(C(F)(F)F)c2)nc1 [Example 90, (S)-6-(3-cyclohexyl-2-(4-(trifluoromethyl)-1H-imidazol-1-yl)propanamido)nicotinic acid]
1.9 | 48 | CC(C)S(=O)(=O)c1cnn([C@@H](CC2CCCC2)C(=O)Nc2ccccn2)c1 [Example 16, (S)-3-cyclopentyl-2-(4-(isopropylsulfonyl)-1H-pyrazol-1-yl)-N-(pyridin-2-yl)propanamide]
3.5 to 6 | 39 to 40 | CC(C)S(=O)(=O)c1cnn([C@@H](CC2CCCC2)C(=O)Nc2ccn(C)n2)c1 [Example 7, (S)-3-cyclopentyl-2-(4-(isopropylsulfonyl)-1H-pyrazol-1-yl)-N-(1-methyl-1H-pyrazol-3-yl)propanamide]
0.7 to 1.9 | 15 to 23 | CC(C)S(=O)(=O)c1cnn([C@@H](CC2CCCC2)C(=O)Nc2ccc(C(F)(F)F)cn2)c1 [Example 3, (S)-3-cyclopentyl-2-(4-(isopropylsulfonyl)-1H-pyrazol-1-yl)-N-(5-(trifluoromethyl)pyridin-2-yl)propanamide]
4.8 to 5.6 | 70 to 76 | Cc1cnc(NC(=O)[C@H](CC2CCCC2)n2cc(S(=O)(=O)C(C)C)cn2)cn1 [Example 6, (S)-3-cyclopentyl-2-(4-(isopropylsulfonyl)-1H-pyrazol-1-yl)-N-(5-methylpyrazin-2-yl)propanamide]
45 | 183 | O=C(O)Cn1ccc(NC(=O)[C@H](CC2CCCC2)n2cnc(C(F)(F)F)n2)n1 [Example 89, (S)-2-(3-(3-cyclopentyl-2-(3-(trifluoromethyl)-1H-1,2,4-triazol-1-yl)propanamido)-1H-pyrazol-1-yl)acetic acid]
0.8 to 1 | 125 to 147 | Cc1ccc(NC(=O)[C@H](CC2CCCC2)n2cnc(C(F)(F)F)n2)nc1 [Example 85, (S)-3-cyclopentyl-N-(5-methylpyridin-2-yl)-2-(3-(trifluoromethyl)-1H-1,2,4-triazol-1-yl)propanamide]
5 | 115 | Cc1ccc(NC(=O)[C@H](CC2CCCO2)n2cnc(C(F)(F)F)c2)nc1 (mixture of isomers) [Example 82, (2S)—N-(5-methylpyridin-2-yl)-3-(tetrahydrofuran-2-yl)-2-(4-(trifluoromethyl)-1H-imidazol-1-yl)propanamide]
32 | 86 | Cc1ccc(NC(=O)[C@H](CC2CCCC2)n2nnc(S(C)(=O)=O)n2)nc1 [Example 80, (S)-3-cyclopentyl-N-(5-methylpyridin-2-yl)-2-(5-(methylsulfonyl)-2H-tetrazol-2-yl)propanamide]
> 100 |  | Cc1ccc(NC(=O)[C@H](CC2CCCC2)n2cc(C(=O)N(C)C)cn2)nc1 [Example 72, (S)-1-(3-cyclopentyl-1-(5-methylpyridin-2-ylamino)-1-oxopropan-2-yl)-N,N-dimethyl-1H-pyrazole-4-carboxamide]
33 | 89 | Cn1ccc(NC(=O)[C@H](CC2CCCC2)n2cnc(S(C)(=O)=O)n2)n1 [Example 26, (S)-3-cyclopentyl-N-(1-methyl-1H-pyrazol-3-yl)-2-(3-(methylsulfonyl)-1H-1,2,4-triazol-1-yl)propanamide]
18 | 139 | O=C(Nc1nc2cccnc2s1)[C@H](CC1CCOCC1)n1cnc(C(F)(F)F)c1 [Example 77, (S)-3-(tetrahydro-2H-pyran-4-yl)-N-(thiazolo[5,4-b]pyridin-2-yl)-2-(4-(trifluoromethyl)-1H-imidazol-1-yl)propanamide]
0.4 | 110 | NC(=O)c1ccc(NC(=O)[C@H](CC2CCCC2)n2cnc(C(F)(F)F)c2)nc1 [Example 52, 6-[(S)-3-cyclopentyl-2-(4-trifluoromethyl-1H-imidazol-1-yl)-propionylamino]-nicotinamide]
24 | 124 | Cc1cnc(NC(=O)[C@H](CC2CCCC2)n2ccc(C(F)(F)F)n2)cn1 [Example 70, (S)-3-cyclopentyl-N-(5-methylpyrazin-2-yl)-2-(3-(trifluoromethyl)-1H-pyrazol-1-yl)propanamide]
62 | 236 | Cc1cnc(NC(=O)[C@H](CC2CCCC2)n2cnc(S(C)(=O)=O)c2)cn1 [Example 34, (S)-3-cyclopentyl-N-(5-methylpyrazin-2-yl)-2-(4-(methylsulfonyl)-1H-imidazol-1-yl)propanamide]
40 | 99 | Cn1ccc(NC(=O)[C@H](CC2CCCC2)n2nnc(S(C)(=O)=O)n2)n1 [Example 79, (S)-3-cyclopentyl-N-(1-methyl-1H-pyrazol-3-yl)-2-(5-(methylsulfonyl)-2H-tetrazol-2-yl)propanamide]
2.2 | 168 | CCn1ncc(NC(=O)[C@H](CC2CCCC2)n2cnc(C(F)(F)F)c2)n1 [Example 49, (S)-3-cyclopentyl-N-(2-ethyl-2H-[1,2,3]triazol-4-yl)-2-(4-trifluoromethyl-1H-imidazol-1-yl)propanamide]
7.2 | 80 | CCS(=O)(=O)c1cnn([C@@H](CC2CCCC2)C(=O)Nc2ccn(C)n2)c1 [Example 20, (S)-3-cyclopentyl-2-(4-(ethylsulfonyl)-1H-pyrazol-1-yl)-N-(1-methyl-1H-pyrazol-3-yl)propanamide]
55 | 174 | Cn1ccc(NC(=O)[C@H](CC2CCCC2)n2cc(S(C)(=O)=O)cn2)n1 [Example 9, (S)-3-cyclopentyl-N-(1-methyl-1H-pyrazol-3-yl)-2-(4-(methylsulfonyl)-1H-pyrazol-1-yl)propanamide]
9 to 16.5 | 84 to 90 | CC(C)S(=O)(=O)c1cnn([C@@H](CC2CCCC2)C(=O)Nc2cnccn2)c1 [Example 2, (S)-3-cyclopentyl-2-(4-(isopropylsulfonyl)-1H-pyrazol-1-yl)-N-(pyrazin-2-yl)propanamide]
0.4 to 1.2 | 158 to 168 | Cc1nc(C(F)(F)F)cn1[C@@H](CC1CCCC1)C(=O)Nc1ccc(C(=O)O)cn1 [Example 92, (S)-6-(3-cyclopentyl-2-(2-methyl-4-(trifluoromethyl)-1H-imidazol-1-yl)propanamido)nicotinic acid]
16 | 136 | CCS(=O)(=O)c1cn([C@@H](CC2CCCC2)C(=O)Nc2cnc(C)cn2)cn1 [Example 33, (S)-3-cyclopentyl-2-(4-(ethylsulfonyl)-1H-imidazol-1-yl)-N-(5-methylpyrazin-2-yl)propanamide]
32 | 110 | CCn1ccc(NC(=O)[C@H](CC2CCCC2)n2cc(S(C)(=O)=O)cn2)n1 [Example 11, (S)-3-cyclopentyl-N-(1-ethyl-1H-pyrazol-3-yl)-2-(4-(methylsulfonyl)-1H-pyrazol-1-yl)propanamide]
> 100 |  | Cc1ccc(NC(=O)[C@H](CC2CCCC2)n2cnc(S(=O)(=O)C(C)C)c2)nc1 [Example 28, (S)-3-cyclopentyl-2-(4-(isopropylsulfonyl)-1H-imidazol-1-yl)-N-(5-methylpyridin-2-yl)propanamide]
0.8 | 100 | Cc1ccc(NC(=O)[C@H](CC2CCCC2)n2cnc(S(C)(=O)=O)c2)nc1 [Example 35, (S)-3-cyclopentyl-N-(5-methylpyridin-2-yl)-2-(4-(methylsulfonyl)-1H-imidazol-1-yl)propanamide]
10 | 171 | O=C(Nc1cnccn1)[C@H](CC1CCCC1)n1cnc(C(F)(F)F)n1 [Example 84, (S)-3-cyclopentyl-N-(pyrazin-2-yl)-2-(3-(trifluoromethyl)-1H-1,2,4-triazol-1-yl)propanamide]
11 | 122 | Cc1cnc(NC(=O)[C@H](CC2CCCC2)n2cc(S(C)(=O)=O)cn2)cn1 [Example 14, (S)-3-cyclopentyl-N-(5-methylpyrazin-2-yl)-2-(4-(methylsulfonyl)-1H-pyrazol-1-yl)propanamide]
